The target of experiment [1] is T1, EGFR[T790M/C797S/d746-750] (Homo sapiens, UniProt P00533, C797S/DEL746-750/T790M).
T1 construct: purchased Carna Bio
Description: Inhibition of EGFR[T790M/C797S/d746-750] biochemical enzymatic activity (HTRF). The settings on record: EGFR T790M-C797S-Del19, 1 mM ATP, 1 h, room temperature, read-out: IC50 (nM) @T790M - C797S - Del19. In outline:
(§1)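 1 mM ATP, 1 μM biotin-TK peptide, 5 mM MgCl2, 1 mM MnCl2, 0.01% CHAPS, 1 mM DTT, 0.5% DMSO; 1 h RT; EDTA stop; HTRF 665/615 nm; IC50 via 4PL.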
In general terms: In TR-FRET formats the signal depends on donor and acceptor labels being close together.

The target of another experiment is T2, EGFR wild type (Homo sapiens, UniProt P00533).
T2 construct: purchased Carna Bio
The experiment is described as follows: Inhibition of EGFR wild type biochemical enzymatic activity (HTRF). The settings on record: EGFR WT, 1 mM ATP, 1 h, room temperature, read-out: IC50 (nM) @WT. In outline:
as §1

The test system of a further experiment is A-431. The experiment is described as follows: Cell proliferation assay, A-431 cells (GI50, Table 6). The format is cell-based. The settings on record: Homo sapiens, A-431, A-431 cells.
The target in another experiment is T3, EGFR Exon19Del/T790M (Homo sapiens, UniProt P00533, DEL746-750/T790M).
T3 construct: purchased Carna Bio
Description: Inhibition of EGFR Exon19Del/T790M biochemical enzymatic activity (HTRF). The settings on record: EGFR Del19-T790M, 1 mM ATP, 1 h, room temperature, read-out: IC50 (nM) @Del19-T790M. Summed up: as §1

The next experiment has as its target T4, EGFR L858R/T790M (Homo sapiens, UniProt P00533, L858R/T790M).
T4 construct: purchased Carna Bio
The experiment is described as follows: Inhibition of EGFR L858R/T790M biochemical enzymatic activity (HTRF). The settings on record: EGFR L858R-T790M, 1 mM ATP, 1 h, room temperature, read-out: IC50 (nM) @L858R-T790M. In outline:
as §1

For the next experiment, the target named is T5, EGFR (C797S L858R) (Homo sapiens, UniProt P00533, C797S/L858R).
T5 construct: purchased signalchem
T5 sequence (P00533 25-1210 C797S/L858R): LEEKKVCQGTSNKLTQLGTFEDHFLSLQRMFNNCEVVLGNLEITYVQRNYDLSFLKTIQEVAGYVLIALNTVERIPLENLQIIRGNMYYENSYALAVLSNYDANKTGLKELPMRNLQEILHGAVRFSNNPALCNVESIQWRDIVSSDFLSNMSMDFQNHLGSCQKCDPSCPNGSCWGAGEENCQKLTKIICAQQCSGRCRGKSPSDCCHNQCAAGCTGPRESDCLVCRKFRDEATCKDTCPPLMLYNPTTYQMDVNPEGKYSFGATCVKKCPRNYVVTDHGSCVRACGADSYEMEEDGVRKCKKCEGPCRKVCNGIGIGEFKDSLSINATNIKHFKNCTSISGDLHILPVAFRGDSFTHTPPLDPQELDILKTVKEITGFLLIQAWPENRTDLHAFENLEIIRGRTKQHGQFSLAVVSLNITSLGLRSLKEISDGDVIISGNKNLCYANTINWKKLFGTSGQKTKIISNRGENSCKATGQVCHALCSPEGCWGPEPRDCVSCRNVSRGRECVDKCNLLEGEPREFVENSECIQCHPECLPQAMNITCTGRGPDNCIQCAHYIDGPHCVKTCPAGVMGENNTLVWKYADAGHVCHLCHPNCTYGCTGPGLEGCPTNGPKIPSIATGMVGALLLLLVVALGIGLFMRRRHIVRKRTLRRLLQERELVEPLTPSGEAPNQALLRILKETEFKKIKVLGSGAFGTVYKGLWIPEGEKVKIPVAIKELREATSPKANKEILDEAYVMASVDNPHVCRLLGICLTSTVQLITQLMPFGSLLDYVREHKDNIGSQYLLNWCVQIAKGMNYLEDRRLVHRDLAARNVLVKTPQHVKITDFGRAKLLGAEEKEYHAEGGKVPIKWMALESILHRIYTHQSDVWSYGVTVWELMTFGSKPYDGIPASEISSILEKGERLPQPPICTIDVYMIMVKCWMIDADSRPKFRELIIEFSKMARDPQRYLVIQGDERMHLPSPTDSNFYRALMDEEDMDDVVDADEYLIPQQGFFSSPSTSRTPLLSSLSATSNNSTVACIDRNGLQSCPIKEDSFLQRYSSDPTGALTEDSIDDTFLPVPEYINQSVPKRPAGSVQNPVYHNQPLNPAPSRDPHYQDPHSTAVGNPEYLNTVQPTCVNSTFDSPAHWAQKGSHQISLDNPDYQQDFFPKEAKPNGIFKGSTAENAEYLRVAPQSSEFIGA
The experiment is described as follows: Inhibition of EGFR (C797S L858R) biochemical enzymatic activity (HTRF). As to conditions: EGFR L858-C797S, 1 mM ATP, 1 h, room temperature, read-out: IC50 (nM) @L858-C797S. In outline:
as §1

The target in another experiment is T6, EGFR (d746-750 C797S) (Homo sapiens, UniProt P00533, C797S/DEL746-750).
T6 construct: purchased signalchem
Description: Inhibition of EGFR (d746-750 C797S) biochemical enzymatic activity (HTRF). The settings on record: EGFR Del19-C797S, 1 mM ATP, 1 h, room temperature, read-out: IC50 (nM) @Del19-C797S. Summed up: as §1

The target in the next experiment is T7, EGFR L858R (Homo sapiens, UniProt P00533, L858R).
T7 construct: purchased Carna Bio
T7 sequence (P00533 25-1210 L858R): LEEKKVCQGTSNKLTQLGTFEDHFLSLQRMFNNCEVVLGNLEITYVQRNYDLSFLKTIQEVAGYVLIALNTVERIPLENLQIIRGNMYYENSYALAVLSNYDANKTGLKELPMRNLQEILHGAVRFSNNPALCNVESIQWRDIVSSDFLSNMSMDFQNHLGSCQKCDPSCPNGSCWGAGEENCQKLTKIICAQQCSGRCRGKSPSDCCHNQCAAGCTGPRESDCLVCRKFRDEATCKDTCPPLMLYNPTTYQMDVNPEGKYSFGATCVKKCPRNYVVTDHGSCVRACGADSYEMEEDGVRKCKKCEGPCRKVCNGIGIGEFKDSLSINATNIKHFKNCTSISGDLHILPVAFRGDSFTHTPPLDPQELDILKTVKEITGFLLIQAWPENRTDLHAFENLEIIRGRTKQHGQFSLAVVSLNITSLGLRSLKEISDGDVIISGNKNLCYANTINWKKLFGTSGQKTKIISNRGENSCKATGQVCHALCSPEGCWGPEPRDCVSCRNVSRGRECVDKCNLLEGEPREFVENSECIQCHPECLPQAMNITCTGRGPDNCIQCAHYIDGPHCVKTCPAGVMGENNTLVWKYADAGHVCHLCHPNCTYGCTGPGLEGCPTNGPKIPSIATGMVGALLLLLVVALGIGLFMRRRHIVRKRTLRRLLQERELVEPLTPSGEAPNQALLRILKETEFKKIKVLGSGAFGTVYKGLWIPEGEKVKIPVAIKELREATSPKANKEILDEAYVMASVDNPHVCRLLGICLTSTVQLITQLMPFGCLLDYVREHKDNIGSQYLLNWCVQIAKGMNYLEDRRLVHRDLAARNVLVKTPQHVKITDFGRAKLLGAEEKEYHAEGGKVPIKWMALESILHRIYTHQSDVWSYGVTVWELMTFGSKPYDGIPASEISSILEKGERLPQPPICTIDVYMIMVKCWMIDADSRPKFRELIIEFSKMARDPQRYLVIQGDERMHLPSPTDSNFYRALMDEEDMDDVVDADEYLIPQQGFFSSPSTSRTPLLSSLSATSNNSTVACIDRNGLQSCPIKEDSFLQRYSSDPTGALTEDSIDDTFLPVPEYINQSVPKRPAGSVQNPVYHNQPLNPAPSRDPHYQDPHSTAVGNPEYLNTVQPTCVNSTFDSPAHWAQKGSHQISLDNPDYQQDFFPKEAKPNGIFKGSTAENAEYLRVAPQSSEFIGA
The experiment is described as follows: Inhibition of EGFR L858R biochemical enzymatic activity (HTRF). The settings on record: 1 mM ATP, 1 h, room temperature, read-out: IC50 (nM) @L858R. In outline:
as §1

In the next experiment the test system is PC-9. Description: Cell proliferation assay, PC-9 cells (CellTiter-Glo, 72 hours). Format: cell-based. As to conditions: Homo sapiens, PC-9, 72 h, PC9 cells, read-out: GI50 PC9. In outline: (§2)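 Ba/F3 cells carrying EGFR mutants (5000/well) or PC-9 cells (500/well) in RPMI1640 were dosed with compound series after overnight attachment and grown 72 h. Viability read by CellTiter-Glo, with day-0 counts subtracted; GI50 from curve fits of % proliferation versus DMSO control.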
For orientation: ATP-based viability assays read luminescence as a measure of living cells.

Another experiment addresses T8, EGFR Exon19Del (Homo sapiens, UniProt P00533, DEL746-750).
T8 construct: purchased Carna Bio
Description: Inhibition of EGFR Exon19Del biochemical enzymatic activity (HTRF). The settings on record: EGFR Del19, 1 mM ATP, 1 h, room temperature, read-out: IC50 @Del19. Summed up:
as §1

The next experiment addresses T9, EGFR[T790M/C797S/L858R] (Homo sapiens, UniProt P00533, C797S/L858R/T790M).
T9 construct: purchased Carna Bio
Description: Inhibition of EGFR[T790M/C797S/L858R] biochemical enzymatic activity (HTRF). The settings on record: EGFR T790M-C797S-L858R, 1 mM ATP, 1 h, room temperature, read-out: IC50 (nM) @T790M- C797S - L858R. Summed up: as §1

Experiment [2] has as its system Ba/F3 cells expressing EGFR mutations. Description: Cell proliferation assay, Ba/F3 cells expressing EGFR mutations (CellTiter-Glo, 72 hours). The format is cell-based. As to conditions: Mus musculus, BaF3, 72 h. In outline: as §2
Where [3] appears, read: BaF3 cells, EGFR DEL19 - C797S, read-out: GI50 DEL19 - C797S/BaF3.
The mark [4] stands for this setting: BaF3 cells, EGFR DEL19 - T790-C797S, read-out: GI50 DEL19 - T790-C797S/BaF3.
Setting [5] is: BaF3 cells, EGFR L858R - C797S, read-out: GI50 L858R - C797S/BaF3.
The mark [6] stands for this setting: BaF3 cells, EGFR L858R - T790-C797S, read-out: GI50 L858R - T790-C797S/BaF3.
The mark [7] stands for this setting: BaF3 cells, EGFR L858R - T790M, read-out: GI50 L858R - T790M/BaF3.
Where [8] appears, read: BaF3 cells, EGFR L858R, read-out: GI50 L858R/BaF3.
Where [9] appears, read: EGFR DEL19 - T790M, read-out: GI50 DEL19 - T790M.

Where two headings read alike, the source gives them in different places.

What is called IC50 is the concentration that inhibits the measured activity by half.

T8 sequence (P00533 with tags, fused parts or gaps DEL746-750 limits assumed): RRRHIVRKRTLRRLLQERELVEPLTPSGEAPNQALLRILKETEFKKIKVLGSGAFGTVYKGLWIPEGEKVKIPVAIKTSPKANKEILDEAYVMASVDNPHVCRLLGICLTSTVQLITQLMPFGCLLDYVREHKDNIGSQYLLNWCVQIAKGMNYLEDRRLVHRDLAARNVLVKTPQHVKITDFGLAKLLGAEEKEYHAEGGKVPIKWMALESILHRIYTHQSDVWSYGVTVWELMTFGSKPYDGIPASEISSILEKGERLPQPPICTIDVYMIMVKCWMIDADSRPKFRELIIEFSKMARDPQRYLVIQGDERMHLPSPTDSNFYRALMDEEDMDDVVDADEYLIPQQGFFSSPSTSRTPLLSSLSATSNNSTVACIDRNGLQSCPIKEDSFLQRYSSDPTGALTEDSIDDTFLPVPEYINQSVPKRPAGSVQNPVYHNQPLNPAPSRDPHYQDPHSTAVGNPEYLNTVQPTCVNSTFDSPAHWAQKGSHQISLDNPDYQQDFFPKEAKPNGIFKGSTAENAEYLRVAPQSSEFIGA
T4 sequence (P00533 25-1210 T790M/L858R): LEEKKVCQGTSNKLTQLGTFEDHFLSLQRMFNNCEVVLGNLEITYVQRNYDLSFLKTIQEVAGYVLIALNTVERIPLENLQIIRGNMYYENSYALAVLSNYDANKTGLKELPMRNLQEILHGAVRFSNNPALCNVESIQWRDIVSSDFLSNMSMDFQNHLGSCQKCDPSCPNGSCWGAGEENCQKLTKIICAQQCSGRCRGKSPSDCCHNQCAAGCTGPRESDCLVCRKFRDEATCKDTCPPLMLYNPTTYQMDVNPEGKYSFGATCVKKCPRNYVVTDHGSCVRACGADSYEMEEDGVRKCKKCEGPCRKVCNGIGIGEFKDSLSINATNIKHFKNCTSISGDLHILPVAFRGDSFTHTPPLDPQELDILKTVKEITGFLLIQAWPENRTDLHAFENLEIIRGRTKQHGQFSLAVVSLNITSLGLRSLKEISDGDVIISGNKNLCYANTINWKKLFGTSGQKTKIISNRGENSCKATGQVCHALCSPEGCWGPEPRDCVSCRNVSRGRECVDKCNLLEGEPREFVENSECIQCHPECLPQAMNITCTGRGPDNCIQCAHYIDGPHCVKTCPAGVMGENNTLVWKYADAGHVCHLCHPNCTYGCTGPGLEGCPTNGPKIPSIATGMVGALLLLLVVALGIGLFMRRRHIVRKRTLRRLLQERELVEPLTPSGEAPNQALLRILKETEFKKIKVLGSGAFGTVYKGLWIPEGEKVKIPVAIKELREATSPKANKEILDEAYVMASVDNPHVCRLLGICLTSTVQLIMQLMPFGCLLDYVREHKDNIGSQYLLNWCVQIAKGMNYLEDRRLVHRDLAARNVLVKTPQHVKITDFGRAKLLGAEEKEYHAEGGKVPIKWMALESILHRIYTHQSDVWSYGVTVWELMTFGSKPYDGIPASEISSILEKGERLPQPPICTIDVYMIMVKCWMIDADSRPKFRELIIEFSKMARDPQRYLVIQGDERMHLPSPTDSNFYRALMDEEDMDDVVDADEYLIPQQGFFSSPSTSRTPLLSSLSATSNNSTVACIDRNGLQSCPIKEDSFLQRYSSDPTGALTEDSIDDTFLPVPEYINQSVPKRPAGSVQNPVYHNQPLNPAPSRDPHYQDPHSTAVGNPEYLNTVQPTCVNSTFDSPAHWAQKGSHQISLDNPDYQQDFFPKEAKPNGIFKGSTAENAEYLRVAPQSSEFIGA
T1 sequence (P00533 with tags, fused parts or gaps DEL746-750/T790M/C797S limits assumed): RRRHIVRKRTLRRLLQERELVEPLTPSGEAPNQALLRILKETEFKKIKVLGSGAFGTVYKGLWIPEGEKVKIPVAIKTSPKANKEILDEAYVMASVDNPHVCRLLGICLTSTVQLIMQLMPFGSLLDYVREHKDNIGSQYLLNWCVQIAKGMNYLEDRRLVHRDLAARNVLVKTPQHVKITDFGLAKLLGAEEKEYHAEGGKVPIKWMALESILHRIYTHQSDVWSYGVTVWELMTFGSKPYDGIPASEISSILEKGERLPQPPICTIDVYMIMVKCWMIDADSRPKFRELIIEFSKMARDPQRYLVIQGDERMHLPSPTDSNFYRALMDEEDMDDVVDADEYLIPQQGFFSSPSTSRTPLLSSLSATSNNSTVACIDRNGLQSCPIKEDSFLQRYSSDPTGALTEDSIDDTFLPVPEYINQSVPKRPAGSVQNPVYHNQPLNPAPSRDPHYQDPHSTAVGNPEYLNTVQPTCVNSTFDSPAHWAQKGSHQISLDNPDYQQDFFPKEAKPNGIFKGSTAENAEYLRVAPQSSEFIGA

Regarding `CN1CCC12CCN(c1ccc3nc4n(c3c1)C13CCC(CC1)CN(CCOc1c(cnn1C)-c1cc(cn(C)c1=O)C(=O)N4)C3)CC2` [Example A122], the IC50 in experiment [1] is 5.2 nM; on EGFR wild type it was 1420 nM; at EGFR Exon19Del/T790M it was 7.6 nM; on EGFR L858R/T790M, 39 nM; on EGFR (C797S L858R), 25 nM; on EGFR (d746-750 C797S), 3.5 nM. Also, the half-inhibitory concentration (IC50) on EGFR L858R stood at 48 nM; on EGFR Exon19Del it was 6.8 nM; on EGFR[T790M/C797S/L858R], 8.1 nM. Further, the GI50 in the experiment with A-431 amounted to 2100 nM; in the experiment on PC-9 it was 22 nM; in experiment [2] (setting [3]), 3.2 nM; in [2] (setting [4]), 22 nM; in experiment [2] (setting [5]), 19 nM; in experiment [2] (setting [6]), 13 nM. Further, the GI50 was 82 nM in [2] (setting [7]) and 4.1 nM in experiment [2] (setting [8]).

As for `Cc1cc2cc(n1)-c1cnn(C3CC3)c1OCCN(CC(F)(F)F)CCn1c(nc3ccccc31)NC2=O` [Example B6, 5-cyclopropyl-26-methyl-10-(2,2,2-trifluoroethyl)-7-oxa-4,5,10,13,20,22,27-heptaazapentacyclo[22.3.1.0^{2,6}.0^{13,21}.0^{14,19}]octacosa-1(27),2(6),3,14,16,18,20,24(28),25-nonaen-23-one], the IC50 in [1] was 3.6 nM; at EGFR wild type, greater than 5000 nM; on EGFR Exon19Del/T790M it was 5.2 nM; on EGFR L858R/T790M, 9 nM; on EGFR (C797S L858R), 390 nM; at EGFR (d746-750 C797S), 112 nM. The half-maximal inhibitory concentration (IC50) was found to be 1090 nM at EGFR L858R, 197 nM at EGFR Exon19Del and 3.1 nM at EGFR[T790M/C797S/L858R]. Moreover, the GI50 with A-431 was found to be 2830 nM; in the experiment on PC-9, 145 nM; in experiment [2] (setting [3]) it was 62 nM; in [2] (setting [4]) it was 42 nM; in [2] (setting [5]) it was 69 nM; in [2] (setting [6]), 7.7 nM. In addition, the values for the GI50 in [2] (setting [7]), in experiment [2] (setting [8]) and in experiment [2] (setting [9]) were 16 nM, 35 nM and 48 nM, respectively.

Regarding `Cn1ncc2c1OCCN1CC3CCC(CC3)(C1)n1c(nc3cc(F)c(N4CCOCC4)cc31)NC(=O)c1cc-2c(=O)n(C)c1` [Example A113, 6-Fluoro-15,21-dimethyl-5-(morpholin-4-yl)-23-oxa-2,9,11,15,20,21,26-heptaazaheptacyclo[26.2.2.1^{1,26}.1^{13,17}.0^{2,10}.0^{3,8}.0^{18,22}]tetratriaconta-3,5,7,9,13,17(34),18(22),19-octaene-12,16-dione], the IC50 in experiment [1] is 45 nM; at EGFR wild type it was greater than 5000 nM; on EGFR Exon19Del/T790M, 32 nM; at EGFR L858R/T790M, 230 nM; at EGFR (C797S L858R), 46 nM; on EGFR (d746-750 C797S), 1200 nM. Moreover, the half-maximal inhibitory concentration (IC50) at EGFR L858R was determined as 439 nM; on EGFR Exon19Del, 41 nM; on EGFR[T790M/C797S/L858R], 900 nM. The GI50 turned out to be 4690 nM with A-431; 147 nM in the experiment with PC-9; 15 nM in experiment [2] (setting [3]); 108 nM in [2] (setting [4]); 172 nM in [2] (setting [5]); 230 nM in [2] (setting [6]). The GI50 turned out to be 255 nM in experiment [2] (setting [7]), 121 nM in experiment [2] (setting [8]) and 63 nM in experiment [2] (setting [9]).
